Measured values as given in US9855268B2, “Triazolo[4,5-d]pyrimidine derivatives” (Merck Patent GmbH, priority 2013, dated 2018).

Key:
GSK3α(h) = GSK3α(h) (Homo sapiens, UniProt P49840); experiment: GSK3α radiometric kinase assay (33P-ATP, phospho GS2 peptide); type: biochemical; conditions: read-out: IC50 GSK3α (enzyme assay)
Method in brief: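 Human GSK3α incubated with 20 μM phospho-GS2 peptide in 8 mM MOPS pH 7,0, 10 mM Mg-acetate and [γ-33P]ATP (concentration as required), started with MgATP. After 40 minutes at room temperature, stopped with phosphoric acid; 33P incorporation measured by filtermat spotting and scintillation counting.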

GCN2 [1] = target: T1, GCN2 (Homo sapiens, UniProt Q9P2K8); experiment: Cellular assay of GCN2 activity (phospho-eIF2alpha immunocytochemistry after tryptophanol); type: cell-based; set-up: endogenous in cells; host or cells: U2OS; conditions: Human U2OS cells, 2 h compound, 600 μM tryptophanol 30 min
Method in brief: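 Readout in human U2OS cells: compound pretreatment 2 h, then tryptophanol (600 μM final) for 30 min to trigger GCN2 signalling. Fixed, permeabilised cells quantified by immunocytochemistry for phosphorylation, normalised to DMSO controls as % effect; IC50 from concentration-response.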
Target sequence in this assay (Q9P2K8 whole entry): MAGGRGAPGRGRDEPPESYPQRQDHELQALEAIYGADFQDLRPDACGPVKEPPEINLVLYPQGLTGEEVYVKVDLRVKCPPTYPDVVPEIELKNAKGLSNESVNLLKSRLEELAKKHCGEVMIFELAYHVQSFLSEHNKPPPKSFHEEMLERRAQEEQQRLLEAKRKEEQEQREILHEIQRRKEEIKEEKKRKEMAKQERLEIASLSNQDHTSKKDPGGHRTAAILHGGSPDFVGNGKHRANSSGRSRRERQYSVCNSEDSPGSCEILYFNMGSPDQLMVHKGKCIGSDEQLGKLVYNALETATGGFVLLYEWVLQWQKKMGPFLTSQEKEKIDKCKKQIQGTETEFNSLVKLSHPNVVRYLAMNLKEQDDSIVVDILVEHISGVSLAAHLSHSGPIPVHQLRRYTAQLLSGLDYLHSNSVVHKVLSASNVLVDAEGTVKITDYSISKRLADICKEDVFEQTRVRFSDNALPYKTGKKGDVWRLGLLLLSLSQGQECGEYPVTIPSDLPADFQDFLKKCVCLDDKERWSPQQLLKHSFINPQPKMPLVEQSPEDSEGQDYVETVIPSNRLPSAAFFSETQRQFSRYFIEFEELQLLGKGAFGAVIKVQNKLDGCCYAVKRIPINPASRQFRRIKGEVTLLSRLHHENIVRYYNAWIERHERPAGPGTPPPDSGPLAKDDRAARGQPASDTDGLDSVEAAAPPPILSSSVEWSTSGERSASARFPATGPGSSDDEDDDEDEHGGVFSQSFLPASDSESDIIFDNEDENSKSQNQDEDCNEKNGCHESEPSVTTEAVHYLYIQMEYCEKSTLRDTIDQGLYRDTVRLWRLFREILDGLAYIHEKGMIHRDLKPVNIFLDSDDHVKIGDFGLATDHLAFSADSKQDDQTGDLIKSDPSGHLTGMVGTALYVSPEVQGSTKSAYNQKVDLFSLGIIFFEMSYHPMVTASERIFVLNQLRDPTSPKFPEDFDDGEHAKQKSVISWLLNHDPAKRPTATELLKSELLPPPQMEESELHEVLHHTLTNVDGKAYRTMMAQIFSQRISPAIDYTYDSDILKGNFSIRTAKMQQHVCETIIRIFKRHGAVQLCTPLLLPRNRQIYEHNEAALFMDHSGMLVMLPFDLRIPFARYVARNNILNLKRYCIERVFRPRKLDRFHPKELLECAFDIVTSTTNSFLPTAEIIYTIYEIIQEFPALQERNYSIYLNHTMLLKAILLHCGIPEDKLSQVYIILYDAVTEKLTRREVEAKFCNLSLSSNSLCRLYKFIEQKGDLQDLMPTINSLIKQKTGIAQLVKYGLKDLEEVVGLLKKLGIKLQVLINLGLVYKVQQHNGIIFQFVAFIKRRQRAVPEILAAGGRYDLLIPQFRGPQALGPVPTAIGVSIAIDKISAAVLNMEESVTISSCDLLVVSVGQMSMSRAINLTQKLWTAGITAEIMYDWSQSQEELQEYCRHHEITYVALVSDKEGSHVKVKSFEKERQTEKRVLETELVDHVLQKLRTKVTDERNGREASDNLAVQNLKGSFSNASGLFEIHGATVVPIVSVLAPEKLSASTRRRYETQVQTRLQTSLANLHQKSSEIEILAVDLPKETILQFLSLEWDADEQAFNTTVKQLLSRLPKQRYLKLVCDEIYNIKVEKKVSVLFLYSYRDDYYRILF

GSK3β(h) = GSK3β(h) (Homo sapiens, UniProt P49841); experiment: GSK3β radiometric kinase assay (33P-ATP, phospho GS2 peptide); type: biochemical; conditions: read-out: IC50 GSK3β (enzyme assay)
GSK3β(h), sequence (P49841 whole entry): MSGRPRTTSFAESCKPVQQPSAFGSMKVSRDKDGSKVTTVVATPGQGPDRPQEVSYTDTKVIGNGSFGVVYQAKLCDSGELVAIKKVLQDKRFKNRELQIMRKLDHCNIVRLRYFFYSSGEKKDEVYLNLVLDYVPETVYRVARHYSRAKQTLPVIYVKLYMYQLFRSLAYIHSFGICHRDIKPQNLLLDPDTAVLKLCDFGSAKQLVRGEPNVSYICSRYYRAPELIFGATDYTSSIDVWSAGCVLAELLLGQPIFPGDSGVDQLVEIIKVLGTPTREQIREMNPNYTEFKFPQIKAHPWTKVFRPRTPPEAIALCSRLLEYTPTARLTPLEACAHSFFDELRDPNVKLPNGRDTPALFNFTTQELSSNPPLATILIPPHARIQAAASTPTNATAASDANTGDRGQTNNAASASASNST
Method in brief: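 Human GSK3β in 8 mM MOPS pH 7,0, 0,2 mM EDTA, 10 mM Mg-acetate with 20 μM phospho-GS2 peptide; the reaction was started with [γ-33P]MgATP at an unstated level. After 40 min at room temperature it was stopped with phosphoric acid, and the peptide was captured on P30 filtermat for scintillation counting.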

GCN2 [2] = target: T1, GCN2; experiment: GCN2 enzyme assay (TR-FRET Lanthascreen, GFP-eIF2alpha phosphorylation); type: biochemical; conditions: 10 μM ATP, 80 nM GFP-eIF2a, 30 nM GCN2
Method in brief: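 Phosphorylation of GFP-eIF2alpha (80 nM) by GCN2 run at room temperature with 10 μM ATP. After EDTA quench, product quantified by Lanthascreen TR-FRET (antibody–GFP complex, 340 nm excitation).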
Target sequence in this assay (Q9P2K8 whole entry, species assumed): as the sequence (Q9P2K8 whole entry) above

GSK3α(h), sequence (P49840 whole entry): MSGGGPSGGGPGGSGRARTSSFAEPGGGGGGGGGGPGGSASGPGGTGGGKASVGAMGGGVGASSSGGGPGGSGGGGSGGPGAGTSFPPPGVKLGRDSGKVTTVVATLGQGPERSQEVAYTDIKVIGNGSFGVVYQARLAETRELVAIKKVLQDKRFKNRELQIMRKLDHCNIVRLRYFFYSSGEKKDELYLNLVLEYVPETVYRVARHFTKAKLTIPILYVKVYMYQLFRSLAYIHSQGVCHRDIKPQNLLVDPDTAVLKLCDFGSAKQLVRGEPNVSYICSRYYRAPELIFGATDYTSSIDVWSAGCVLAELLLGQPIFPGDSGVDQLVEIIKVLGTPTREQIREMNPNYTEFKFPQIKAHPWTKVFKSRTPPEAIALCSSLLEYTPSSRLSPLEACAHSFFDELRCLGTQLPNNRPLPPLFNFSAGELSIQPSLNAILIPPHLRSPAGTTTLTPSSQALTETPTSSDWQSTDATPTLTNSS

SMILES	IC50 (GSK3α(h))	IC50 (GCN2 [1])	IC50 (GSK3β(h))	IC50 (GCN2 [2])
Cc1ccc2cc(-n3nnc4cnc(N[C@@H]5CC[C@@H](C(N)=O)C5)nc43)ccc2n1 [A187, (1R,3R)-3-[3-(2-methyl-quinolin-6-yl)-3H-[1,2,3]triazolo[4,5-d]-pyrimidin-5-ylamino]-cyclopentanecarboxylic acid amide]	< 1000 nM	< 1000 nM	< 1000 nM	< 1000 nM
Cc1ccc2cc(-n3nnc4cnc(N[C@H]5CC[C@H](C(N)=O)C5)nc43)ccc2n1 [A193, (1S,3S)-3-[3-(2-methyl-quinolin-6-yl)-3H-[1,2,3]triazolo[4,5-d]pyrimidin-5-ylamino]-cyclopentanecarboxylic acid amide]	< 1000 nM	1000 to 5000 nM	< 1000 nM	< 1000 nM
OCCOc1ccc(-n2nnc3cnc(N[C@@H]4CC[C@@H](O)C4)nc32)cc1 [A203, (1R,3R)-3-{3-[4-(2-hydroxy-ethoxy)-phenyl]-3H-[1,2,3]triazolo[4,5-d]pyrimidin-5-ylamino}-cyclopentanol]	< 1000 nM	1000 to 5000 nM	< 1000 nM	< 1000 nM
O[C@@H]1CC[C@@H](Nc2ncc3nnn(-c4ccc5ncccc5c4)c3n2)C1 [A204, (1R,3R)-3-(3-quinolin-6-yl-3H-[1,2,3]triazolo[4,5-d]pyrimidin-5-ylamino)-cyclopentanol]	< 1000 nM	1000 to 5000 nM	< 1000 nM	< 1000 nM
COCCn1cc(-c2ccc(-n3nnc4cnc(N[C@@H]5CC[C@@H](O)C5)nc43)cc2)cn1 [A212, (1R,3R)-3-(3-{4-[1-(2-methoxy-ethyl)-1H-pyrazol-4-yl]-phenyl}-3H-[1,2,3]triazolo[4,5-d]pyrimidin-5-ylamino)-cyclopentanol]	< 1000 nM	1000 to 5000 nM	< 1000 nM	< 1000 nM
Cc1nc(CCn2cc(-c3ccc(-n4nnc5cnc(N[C@@H]6CC[C@@H](C(N)=O)C6)nc54)cc3)cn2)no1 [A220, (1R,3R)-3-[3-(4-{1-[2-(5-methyl-[1,2,4]oxadiazol-3-yl)-ethyl]-1H-pyrazol-4-yl}-phenyl)-3H-[1,2,3]triazolo[4,5-d]pyrimidin-5-ylamino]-cyclopentanecarboxylic acid amide]	< 1000 nM	< 1000 nM	< 1000 nM	< 1000 nM
CC(C)(O)Cn1cc(-c2ccc(-n3nnc4cnc(N[C@@H]5CC[C@@H](O)C5)nc43)cc2)cn1 [A232, (1R,3R)-3-(3-{4-[1-(2-hydroxy-2-methyl-propyl)-1H-pyrazol-4-yl]-phenyl}-3H-[1,2,3]triazolo[4,5-d]pyrimidin-5-ylamino)-cyclopentanol]	< 1000 nM	5000 to 10000 nM	< 1000 nM	< 1000 nM
COCCn1cc(-c2ccc(-n3nnc4cnc(N[C@@H]5CC[C@@H](C(=O)NCC6CCN(C)CC6)C5)nc43)cc2)cn1 [A235, (1R,3R)-3-(3-{4-[1-(2-methoxy-ethyl)-1H-pyrazol-4-yl]-phenyl}-3H-[1,2,3]triazolo[4,5-d]pyrimidin-5-ylamino)-cyclopentanecarboxylic acid (1-methyl-piperidin-4-ylmethyl)-amide]	< 1000 nM	1000 to 5000 nM	< 1000 nM	< 1000 nM
CCOc1ccc(-n2nnc3cnc(N[C@@H]4CC[C@@H](C(=O)NCCC(C)(C)O)C4)nc32)cc1 [A240, (1R,3R)-3-[3-(4-ethoxy-phenyl)-3H-[1,2,3]triazolo[4,5-d]pyrimidin-5-ylamino]-cyclopentanecarboxylic acid (3-hydroxy-3-methyl-butyl)-amide]	< 1000 nM	5000 to 10000 nM	< 1000 nM	< 1000 nM
COc1ccc(-n2nnc3cnc(N[C@@H]4CC[C@@H](C(=O)NCCN5CCN(C)CC5)C4)nc32)cc1 [A244, (1R,3R)-3-[3-(4-methoxy-phenyl)-3H-[1,2,3]triazolo[4,5-d]pyrimidin-5-ylamino]-cyclopentanecarboxylic acid [2-(4-methyl-piperazin-1-yl)-ethyl]-amide]	< 1000 nM	< 1000 nM	< 1000 nM	< 1000 nM
Cc1ccc2cc(-n3nnc4cnc(N[C@@H]5CC[C@@H](C(=O)NCCO)C5)nc43)ccc2n1 [A245, (1R,3R)-3-[3-(2-methyl-quinolin-6-yl)-3H-[1,2,3]triazolo[4,5-d]pyrimidin-5-ylamino]-cyclopentanecarboxylic acid (2-hydroxy-ethyl)-amide]	< 1000 nM	< 1000 nM	< 1000 nM	< 1000 nM

Second part, the molecule after the results:

IC50 (GSK3α(h))	IC50 (GCN2 [1])	IC50 (GSK3β(h))	IC50 (GCN2 [2])	SMILES
< 1000 nM	5000 to 10000 nM	< 1000 nM	< 1000 nM	CCOCCn1cc(-c2ccc(-n3nnc4cnc(N[C@@H]5CC[C@@H](C(N)=O)C5)nc43)cc2)cn1 [A211, (1R,3R)-3-(3-{4-[1-(2-ethoxy-ethyl)-1H-pyrazol-4-yl]-phenyl}-3H-[1,2,3]triazolo[4,5-d]pyrimidin-5-ylamino)-cyclopentanecarboxylic acid amide]
< 1000 nM	< 1000 nM	< 1000 nM	< 1000 nM	COCCn1cc(-c2ccc(-n3nnc4cnc(N[C@@H]5CC[C@@H](C(N)=O)C5)nc43)cc2)cn1 [A218, (1R,3R)-3-(3-{4-[1-(2-methoxy-ethyl)-1H-pyrazol-4-yl]-phenyl}-3H-[1,2,3]triazolo[4,5-d]pyrimidin-5-ylamino)-cyclopentanecarboxylic acid amide]
< 1000 nM	1000 to 5000 nM	< 1000 nM	< 1000 nM	COCCn1cc(-c2ccc(-n3nnc4cnc(N[C@@H]5CC[C@@H](C(N)=O)C5)nc43)cc2F)cn1 [A221, (1R,3R)-3-(3-{3-fluoro-4-[1-(2-methoxy-ethyl)-1H-pyrazol-4-yl]-phenyl}-3H-[1,2,3]triazolo[4,5-d]pyrimidin-5-ylamino)-cyclopentanecarboxylic acid amide]
< 1000 nM	< 1000 nM	< 1000 nM	< 1000 nM	CCOCCn1cc(-c2ccc(-n3nnc4cnc(N[C@@H]5CC[C@@H](C(N)=O)C5)nc43)cc2F)cn1 [A223, (1R,3R)-3-(3-{4-[1-(2-ethoxy-ethyl)-1H-pyrazol-4-yl]-3-fluoro-phenyl}-3H-[1,2,3]triazolo[4,5-d]pyrimidin-5-ylamino)-cyclopentanecarboxylic acid amide]
< 1000 nM	5000 to 10000 nM	< 1000 nM	< 1000 nM	COCCn1cc(-c2ccc(-n3nnc4cnc(N[C@@H]5CC[C@@H](C(N)=O)C5)nc43)cn2)cn1 [A224, (1R,3R)-3-(3-{6-[1-(2-methoxy-ethyl)-1H-pyrazol-4-yl]-pyridin-3-yl}-3H-[1,2,3]triazolo[4,5-d]pyrimidin-5-ylamino)-cyclopentanecarboxylic acid amide]
< 1000 nM	1000 to 5000 nM	< 1000 nM	< 1000 nM	CCOCCn1cc(-c2ccc(-n3nnc4cnc(N[C@@H]5CC[C@@H](C(=O)NCCOC)C5)nc43)cc2)cn1 [A225, (1R,3R)-3-(3-{4-[1-(2-ethoxy-ethyl)-1H-pyrazol-4-yl]-phenyl}-3H-[1,2,3]triazolo[4,5-d]pyrimidin-5-ylamino)-cyclopentanecarboxylic acid (2-methoxy-ethyl)-amide]
< 1000 nM	1000 to 5000 nM	< 1000 nM	< 1000 nM	CCOCCn1cc(-c2ccc(-n3nnc4cnc(N[C@@H]5CC[C@@H](C(=O)NCCO)C5)nc43)cc2)cn1 [A226, (1R,3R)-3-(3-{4-[1-(2-ethoxy-ethyl)-1H-pyrazol-4-yl]-phenyl}-3H-[1,2,3]triazolo[4,5-d]pyrimidin-5-ylamino)-cyclopentanecarboxylic acid (2-hydroxy-ethyl)-amide]
< 1000 nM	1000 to 5000 nM	< 1000 nM	< 1000 nM	CCOCCn1cc(-c2ccc(-n3nnc4cnc(N[C@@H]5CC[C@@H](O)C5)nc43)cc2)cn1 [A227, (1R,3R)-3-(3-{4-[1-(2-ethoxy-ethyl)-1H-pyrazol-4-yl]-phenyl}-3H-[1,2,3]triazolo[4,5-d]pyrimidin-5-ylamino)-cyclopentanol]
< 1000 nM	5000 to 10000 nM	< 1000 nM	< 1000 nM	COCCn1cc(-c2ccc(-n3nnc4cnc(N[C@@H]5CC[C@@H](O)C5)nc43)cc2F)cn1 [A228, (1R,3R)-3-(3-{3-fluoro-4-[1-(2-methoxy-ethyl)-1H-pyrazol-4-yl]-phenyl}-3H-[1,2,3]triazolo[4,5-d]pyrimidin-5-ylamino)-cyclopentanol]
< 1000 nM	1000 to 5000 nM	< 1000 nM	< 1000 nM	COCCn1cc(-c2ccc(-n3nnc4cnc(N[C@@H]5CC[C@@H](C(N)=O)C5)nc43)cc2C)cn1 [A230, (1R,3R)-3-(3-{4-[1-(2-methoxy-ethyl)-1H-pyrazol-4-yl]-3-methyl-phenyl}-3H-[1,2,3]triazolo[4,5-d]pyrimidin-5-ylamino)-cyclopentanecarboxylic acid amide]
